{"source": "patent US20120258993A1", "about": "“NON-NATURAL MACROCYCLIC AMIDE HDAC6 INHIBITOR COMPOUNDS AND THEIR USES AS THERAPEUTIC AGENTS” (SIGMA-TAU INDUSTRIE FARMACEUTICHE RIUNITE S.P.A., priority 2009, published 2012)", "experiment_in_all_cases": "HDAC enzyme inhibition, fluorogenic peptide substrate", "assay_type_in_all_cases": "biochemical", "settings_in_all_cases": "purified human enzyme, fluorogenic peptide substrate 10 μM", "key": {"[1]": {"molecular_target": "HDAC9 (Homo sapiens, UniProt Q9UKV0)", "sequence (Q9UKV0 whole entry)": "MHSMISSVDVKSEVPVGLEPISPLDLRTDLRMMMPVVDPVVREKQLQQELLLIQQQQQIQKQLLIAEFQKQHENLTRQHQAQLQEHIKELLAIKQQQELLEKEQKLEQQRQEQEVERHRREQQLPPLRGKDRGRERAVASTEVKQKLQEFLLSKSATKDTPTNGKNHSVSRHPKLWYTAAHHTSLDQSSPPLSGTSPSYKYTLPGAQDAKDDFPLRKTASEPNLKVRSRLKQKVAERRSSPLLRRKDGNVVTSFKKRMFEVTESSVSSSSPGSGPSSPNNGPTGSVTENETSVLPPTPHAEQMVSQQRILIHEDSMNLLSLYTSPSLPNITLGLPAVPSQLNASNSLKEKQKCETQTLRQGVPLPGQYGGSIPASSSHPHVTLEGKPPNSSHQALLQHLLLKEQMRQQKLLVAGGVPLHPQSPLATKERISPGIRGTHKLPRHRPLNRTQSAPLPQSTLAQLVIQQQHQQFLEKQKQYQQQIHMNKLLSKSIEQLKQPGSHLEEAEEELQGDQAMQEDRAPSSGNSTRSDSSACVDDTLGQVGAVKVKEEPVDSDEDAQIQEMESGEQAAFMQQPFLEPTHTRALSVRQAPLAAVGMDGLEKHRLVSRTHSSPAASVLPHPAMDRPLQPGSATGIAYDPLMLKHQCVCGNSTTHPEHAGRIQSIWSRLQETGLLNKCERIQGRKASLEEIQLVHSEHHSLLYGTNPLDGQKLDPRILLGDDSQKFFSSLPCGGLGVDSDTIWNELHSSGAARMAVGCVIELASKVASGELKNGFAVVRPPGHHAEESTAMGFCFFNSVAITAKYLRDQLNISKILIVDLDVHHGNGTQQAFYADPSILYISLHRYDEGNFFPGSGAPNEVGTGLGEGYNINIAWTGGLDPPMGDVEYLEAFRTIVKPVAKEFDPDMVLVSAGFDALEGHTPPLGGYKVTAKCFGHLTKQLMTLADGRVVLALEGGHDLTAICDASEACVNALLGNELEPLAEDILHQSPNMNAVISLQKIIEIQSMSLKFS", "method": "(§1) The substrate was incubated with the eleven single HDAC purified enzymes. Upon its deacetylation, the fluorophore was released given rise to fluorescence emission. The latter was detected by a fluorimeter, and the IC50 values of the compounds were determined by analyzing dose-response inhibition curves."}, "[2]": {"molecular_target": "T1, HDAC7 (Homo sapiens, UniProt Q8WUI4)", "T1 sequence (Q8WUI4 1-952)": "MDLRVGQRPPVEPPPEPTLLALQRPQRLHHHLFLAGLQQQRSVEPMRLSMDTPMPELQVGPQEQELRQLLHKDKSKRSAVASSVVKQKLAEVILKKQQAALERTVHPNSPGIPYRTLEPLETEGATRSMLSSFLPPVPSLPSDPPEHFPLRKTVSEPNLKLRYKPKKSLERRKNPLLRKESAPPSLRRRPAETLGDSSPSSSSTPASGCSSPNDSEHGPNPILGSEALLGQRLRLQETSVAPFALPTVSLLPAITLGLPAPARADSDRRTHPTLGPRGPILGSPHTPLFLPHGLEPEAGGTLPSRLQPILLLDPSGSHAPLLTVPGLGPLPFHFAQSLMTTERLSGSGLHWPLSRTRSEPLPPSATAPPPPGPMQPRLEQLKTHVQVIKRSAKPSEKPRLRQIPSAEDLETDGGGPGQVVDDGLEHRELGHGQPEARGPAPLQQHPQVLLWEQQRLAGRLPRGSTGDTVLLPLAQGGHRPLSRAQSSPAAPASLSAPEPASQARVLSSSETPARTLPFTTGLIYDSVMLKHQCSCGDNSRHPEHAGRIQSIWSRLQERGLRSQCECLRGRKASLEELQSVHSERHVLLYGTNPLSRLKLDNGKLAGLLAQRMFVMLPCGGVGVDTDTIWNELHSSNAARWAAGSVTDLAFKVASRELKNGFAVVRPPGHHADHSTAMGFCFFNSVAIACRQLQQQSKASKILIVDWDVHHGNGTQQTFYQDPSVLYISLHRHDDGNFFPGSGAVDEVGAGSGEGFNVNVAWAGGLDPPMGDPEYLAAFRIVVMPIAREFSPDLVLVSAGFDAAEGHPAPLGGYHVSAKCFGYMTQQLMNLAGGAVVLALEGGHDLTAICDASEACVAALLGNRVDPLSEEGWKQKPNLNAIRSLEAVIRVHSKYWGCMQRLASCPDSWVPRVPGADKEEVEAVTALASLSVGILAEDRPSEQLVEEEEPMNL", "method": "as §1"}, "[3]": {"molecular_target": "HDAC2 (Homo sapiens, UniProt Q92769)", "sequence (Q92769 whole entry)": "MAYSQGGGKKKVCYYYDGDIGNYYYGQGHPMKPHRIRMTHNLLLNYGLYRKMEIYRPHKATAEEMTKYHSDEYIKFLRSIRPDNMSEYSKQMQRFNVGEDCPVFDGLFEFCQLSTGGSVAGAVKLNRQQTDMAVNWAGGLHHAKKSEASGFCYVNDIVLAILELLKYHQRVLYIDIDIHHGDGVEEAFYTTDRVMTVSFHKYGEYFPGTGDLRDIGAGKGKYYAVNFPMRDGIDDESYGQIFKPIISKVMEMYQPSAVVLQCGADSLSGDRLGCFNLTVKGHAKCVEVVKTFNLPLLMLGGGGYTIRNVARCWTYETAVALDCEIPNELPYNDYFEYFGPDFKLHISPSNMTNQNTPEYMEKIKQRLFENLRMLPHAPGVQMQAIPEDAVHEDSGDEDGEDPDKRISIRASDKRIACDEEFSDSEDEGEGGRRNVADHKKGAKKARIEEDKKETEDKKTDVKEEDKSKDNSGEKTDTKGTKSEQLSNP", "method": "as §1, with “curves. TSA and SAHA were used as reference compounds.” for “curves.”"}, "[4]": {"molecular_target": "HDAC3 (Homo sapiens, UniProt O15379)", "sequence (O15379 whole entry)": "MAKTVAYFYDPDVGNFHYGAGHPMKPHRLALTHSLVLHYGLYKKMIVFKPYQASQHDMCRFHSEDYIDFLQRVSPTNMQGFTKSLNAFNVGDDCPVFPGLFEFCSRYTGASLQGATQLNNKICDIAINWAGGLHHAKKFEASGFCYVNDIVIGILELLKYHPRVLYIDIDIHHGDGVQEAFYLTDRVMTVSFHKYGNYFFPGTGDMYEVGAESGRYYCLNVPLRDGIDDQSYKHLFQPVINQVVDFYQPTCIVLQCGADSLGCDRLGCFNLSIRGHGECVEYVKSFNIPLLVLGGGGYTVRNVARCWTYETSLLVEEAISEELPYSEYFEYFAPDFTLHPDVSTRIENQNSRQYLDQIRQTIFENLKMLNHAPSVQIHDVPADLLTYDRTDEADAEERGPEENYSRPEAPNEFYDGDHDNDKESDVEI", "sequence (Q9Y618 395-489 partner limits assumed)": "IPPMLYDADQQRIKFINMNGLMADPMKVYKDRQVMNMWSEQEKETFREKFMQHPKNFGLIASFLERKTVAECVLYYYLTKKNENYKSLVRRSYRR", "method": "as §1, with “curves. TSA and SAHA were used as reference compounds.” for “curves.”"}, "[5]": {"molecular_target": "HDAC4 (Homo sapiens, UniProt P56524)", "sequence (P56524 whole entry)": "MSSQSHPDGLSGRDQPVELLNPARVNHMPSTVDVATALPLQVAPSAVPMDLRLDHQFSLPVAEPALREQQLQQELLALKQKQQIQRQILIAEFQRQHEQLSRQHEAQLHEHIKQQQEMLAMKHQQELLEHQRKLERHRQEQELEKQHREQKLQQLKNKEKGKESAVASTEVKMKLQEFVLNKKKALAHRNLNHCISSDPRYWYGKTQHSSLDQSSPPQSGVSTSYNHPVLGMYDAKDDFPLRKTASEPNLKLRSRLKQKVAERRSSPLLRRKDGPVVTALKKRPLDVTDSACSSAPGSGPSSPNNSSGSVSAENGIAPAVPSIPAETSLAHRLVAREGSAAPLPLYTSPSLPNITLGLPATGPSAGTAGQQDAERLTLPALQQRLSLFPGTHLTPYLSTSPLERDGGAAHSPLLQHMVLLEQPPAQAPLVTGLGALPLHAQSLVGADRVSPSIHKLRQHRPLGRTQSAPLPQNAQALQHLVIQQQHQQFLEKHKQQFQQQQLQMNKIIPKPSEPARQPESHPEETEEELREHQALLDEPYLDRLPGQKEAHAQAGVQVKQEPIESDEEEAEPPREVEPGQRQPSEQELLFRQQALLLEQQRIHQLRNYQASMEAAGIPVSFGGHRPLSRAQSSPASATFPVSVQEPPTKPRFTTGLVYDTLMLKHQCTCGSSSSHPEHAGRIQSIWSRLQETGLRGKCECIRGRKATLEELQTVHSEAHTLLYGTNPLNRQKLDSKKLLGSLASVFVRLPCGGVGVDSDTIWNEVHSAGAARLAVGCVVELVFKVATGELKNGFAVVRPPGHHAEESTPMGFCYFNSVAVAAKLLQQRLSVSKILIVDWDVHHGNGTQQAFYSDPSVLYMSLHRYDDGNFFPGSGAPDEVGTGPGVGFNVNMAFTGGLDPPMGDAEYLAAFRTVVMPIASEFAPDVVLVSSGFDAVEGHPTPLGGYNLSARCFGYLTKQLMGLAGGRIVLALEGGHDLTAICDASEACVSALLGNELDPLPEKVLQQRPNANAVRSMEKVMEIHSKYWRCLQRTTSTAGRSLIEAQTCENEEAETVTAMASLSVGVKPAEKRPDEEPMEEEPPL", "method": "as §1, with “curves. TSA and SAHA were used as reference compounds.” for “curves.”"}, "[6]": {"molecular_target": "T2, HDAC11 (Homo sapiens, UniProt Q96DB2)", "T2 sequence (Q96DB2 1-347)": "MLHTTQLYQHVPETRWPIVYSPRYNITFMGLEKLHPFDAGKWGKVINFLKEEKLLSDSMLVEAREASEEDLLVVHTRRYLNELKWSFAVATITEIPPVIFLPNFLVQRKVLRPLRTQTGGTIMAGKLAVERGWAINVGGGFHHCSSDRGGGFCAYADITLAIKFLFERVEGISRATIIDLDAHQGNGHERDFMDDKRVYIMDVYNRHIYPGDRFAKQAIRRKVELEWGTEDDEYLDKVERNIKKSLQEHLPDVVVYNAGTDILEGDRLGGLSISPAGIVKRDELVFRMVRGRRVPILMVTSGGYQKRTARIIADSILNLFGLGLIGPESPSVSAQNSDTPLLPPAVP", "method": "as §1, with “curves. TSA and SAHA were used as reference compounds.” for “curves.”"}, "[7]": {"molecular_target": "T3, HDAC10 (Homo sapiens, UniProt Q969S8)", "T3 sequence (Q969S8 1-669)": "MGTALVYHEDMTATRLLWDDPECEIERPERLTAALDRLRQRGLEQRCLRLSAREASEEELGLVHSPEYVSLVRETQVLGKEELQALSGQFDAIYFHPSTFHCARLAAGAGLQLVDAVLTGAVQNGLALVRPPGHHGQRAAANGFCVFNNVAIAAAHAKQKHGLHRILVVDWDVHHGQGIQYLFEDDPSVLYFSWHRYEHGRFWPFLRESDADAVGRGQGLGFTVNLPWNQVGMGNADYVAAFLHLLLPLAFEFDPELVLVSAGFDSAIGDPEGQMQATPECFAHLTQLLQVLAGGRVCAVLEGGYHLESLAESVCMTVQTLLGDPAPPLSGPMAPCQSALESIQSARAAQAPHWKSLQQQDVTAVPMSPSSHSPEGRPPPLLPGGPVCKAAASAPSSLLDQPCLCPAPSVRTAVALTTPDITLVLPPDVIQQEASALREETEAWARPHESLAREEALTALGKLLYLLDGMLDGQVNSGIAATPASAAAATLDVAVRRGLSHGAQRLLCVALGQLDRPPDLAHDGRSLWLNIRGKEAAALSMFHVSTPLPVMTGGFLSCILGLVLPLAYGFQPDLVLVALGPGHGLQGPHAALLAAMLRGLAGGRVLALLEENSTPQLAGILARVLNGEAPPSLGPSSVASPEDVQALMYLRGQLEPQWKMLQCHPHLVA", "method": "as §1, with “curves. TSA and SAHA were used as reference compounds.” for “curves.”"}, "[8]": {"molecular_target": "T4, HDAC6 (Homo sapiens, UniProt Q9UBN7)", "T4 sequence (Q9UBN7 1-1215)": "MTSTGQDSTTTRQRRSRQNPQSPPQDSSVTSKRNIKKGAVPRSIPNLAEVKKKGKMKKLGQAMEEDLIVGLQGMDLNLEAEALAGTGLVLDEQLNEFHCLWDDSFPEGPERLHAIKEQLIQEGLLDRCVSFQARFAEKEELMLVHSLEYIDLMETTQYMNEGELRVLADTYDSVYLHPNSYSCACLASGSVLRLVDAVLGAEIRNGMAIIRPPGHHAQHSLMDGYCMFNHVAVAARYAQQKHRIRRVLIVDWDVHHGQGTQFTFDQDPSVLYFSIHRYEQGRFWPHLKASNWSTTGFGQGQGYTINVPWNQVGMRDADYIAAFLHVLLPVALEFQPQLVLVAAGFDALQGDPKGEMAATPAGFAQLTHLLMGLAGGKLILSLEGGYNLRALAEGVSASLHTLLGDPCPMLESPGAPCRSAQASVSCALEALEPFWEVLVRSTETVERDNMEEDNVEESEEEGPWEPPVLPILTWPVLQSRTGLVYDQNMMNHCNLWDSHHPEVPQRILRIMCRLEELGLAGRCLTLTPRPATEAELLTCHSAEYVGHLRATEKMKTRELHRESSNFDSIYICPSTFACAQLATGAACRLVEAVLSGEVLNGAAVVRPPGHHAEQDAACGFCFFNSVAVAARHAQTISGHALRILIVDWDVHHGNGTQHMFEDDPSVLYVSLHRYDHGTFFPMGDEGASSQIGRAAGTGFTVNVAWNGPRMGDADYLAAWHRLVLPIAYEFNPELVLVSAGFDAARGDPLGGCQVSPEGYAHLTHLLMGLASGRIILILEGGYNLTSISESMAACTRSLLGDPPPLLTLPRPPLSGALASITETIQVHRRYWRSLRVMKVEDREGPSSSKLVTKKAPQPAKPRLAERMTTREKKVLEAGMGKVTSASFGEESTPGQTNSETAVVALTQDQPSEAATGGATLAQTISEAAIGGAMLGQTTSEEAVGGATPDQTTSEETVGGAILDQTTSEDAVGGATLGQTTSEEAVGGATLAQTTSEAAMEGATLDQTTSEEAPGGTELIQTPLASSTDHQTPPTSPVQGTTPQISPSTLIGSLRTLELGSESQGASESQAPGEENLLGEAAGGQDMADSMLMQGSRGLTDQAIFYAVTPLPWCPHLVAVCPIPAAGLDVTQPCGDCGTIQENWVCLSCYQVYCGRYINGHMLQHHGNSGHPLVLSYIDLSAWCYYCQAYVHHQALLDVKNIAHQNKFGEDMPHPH", "method": "as §1, with “curves. TSA and SAHA were used as reference compounds.” for “curves.”"}, "[9]": {"molecular_target": "HDAC1 (Homo sapiens, UniProt Q13547)", "sequence (Q13547 whole entry)": "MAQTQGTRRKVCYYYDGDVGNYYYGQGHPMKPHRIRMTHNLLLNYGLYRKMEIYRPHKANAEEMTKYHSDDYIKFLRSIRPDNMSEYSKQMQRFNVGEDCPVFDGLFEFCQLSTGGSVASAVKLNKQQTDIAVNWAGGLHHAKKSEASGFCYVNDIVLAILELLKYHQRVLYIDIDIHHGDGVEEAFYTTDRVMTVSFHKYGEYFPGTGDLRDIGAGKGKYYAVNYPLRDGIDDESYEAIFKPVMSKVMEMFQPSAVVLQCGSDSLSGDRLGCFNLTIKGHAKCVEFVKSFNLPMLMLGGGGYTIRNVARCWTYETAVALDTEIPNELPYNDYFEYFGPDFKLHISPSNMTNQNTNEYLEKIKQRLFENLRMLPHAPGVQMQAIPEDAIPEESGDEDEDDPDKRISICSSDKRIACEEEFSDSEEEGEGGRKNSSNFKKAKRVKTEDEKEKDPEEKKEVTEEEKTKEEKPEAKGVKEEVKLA", "method": "as §1, with “curves. TSA and SAHA were used as reference compounds.” for “curves.”"}, "[10]": {"molecular_target": "T5, HDAC8 (Homo sapiens, UniProt Q9BY41)", "T5 sequence (Q9BY41 1-377)": "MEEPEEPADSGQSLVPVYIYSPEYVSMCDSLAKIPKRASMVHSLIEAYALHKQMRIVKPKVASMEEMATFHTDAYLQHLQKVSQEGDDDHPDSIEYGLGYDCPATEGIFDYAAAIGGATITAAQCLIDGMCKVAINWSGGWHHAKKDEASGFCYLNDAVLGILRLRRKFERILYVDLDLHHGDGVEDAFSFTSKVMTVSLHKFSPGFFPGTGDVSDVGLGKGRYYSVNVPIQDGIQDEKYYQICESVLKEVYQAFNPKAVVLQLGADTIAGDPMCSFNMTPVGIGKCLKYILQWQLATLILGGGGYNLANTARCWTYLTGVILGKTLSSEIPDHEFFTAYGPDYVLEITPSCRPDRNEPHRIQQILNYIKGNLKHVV", "method": "as §1, with “curves. TSA and SAHA were used as reference compounds.” for “curves.”"}, "[11]": {"molecular_target": "HDAC5 (Homo sapiens, UniProt Q9UQL6)", "sequence (Q9UQL6 whole entry)": "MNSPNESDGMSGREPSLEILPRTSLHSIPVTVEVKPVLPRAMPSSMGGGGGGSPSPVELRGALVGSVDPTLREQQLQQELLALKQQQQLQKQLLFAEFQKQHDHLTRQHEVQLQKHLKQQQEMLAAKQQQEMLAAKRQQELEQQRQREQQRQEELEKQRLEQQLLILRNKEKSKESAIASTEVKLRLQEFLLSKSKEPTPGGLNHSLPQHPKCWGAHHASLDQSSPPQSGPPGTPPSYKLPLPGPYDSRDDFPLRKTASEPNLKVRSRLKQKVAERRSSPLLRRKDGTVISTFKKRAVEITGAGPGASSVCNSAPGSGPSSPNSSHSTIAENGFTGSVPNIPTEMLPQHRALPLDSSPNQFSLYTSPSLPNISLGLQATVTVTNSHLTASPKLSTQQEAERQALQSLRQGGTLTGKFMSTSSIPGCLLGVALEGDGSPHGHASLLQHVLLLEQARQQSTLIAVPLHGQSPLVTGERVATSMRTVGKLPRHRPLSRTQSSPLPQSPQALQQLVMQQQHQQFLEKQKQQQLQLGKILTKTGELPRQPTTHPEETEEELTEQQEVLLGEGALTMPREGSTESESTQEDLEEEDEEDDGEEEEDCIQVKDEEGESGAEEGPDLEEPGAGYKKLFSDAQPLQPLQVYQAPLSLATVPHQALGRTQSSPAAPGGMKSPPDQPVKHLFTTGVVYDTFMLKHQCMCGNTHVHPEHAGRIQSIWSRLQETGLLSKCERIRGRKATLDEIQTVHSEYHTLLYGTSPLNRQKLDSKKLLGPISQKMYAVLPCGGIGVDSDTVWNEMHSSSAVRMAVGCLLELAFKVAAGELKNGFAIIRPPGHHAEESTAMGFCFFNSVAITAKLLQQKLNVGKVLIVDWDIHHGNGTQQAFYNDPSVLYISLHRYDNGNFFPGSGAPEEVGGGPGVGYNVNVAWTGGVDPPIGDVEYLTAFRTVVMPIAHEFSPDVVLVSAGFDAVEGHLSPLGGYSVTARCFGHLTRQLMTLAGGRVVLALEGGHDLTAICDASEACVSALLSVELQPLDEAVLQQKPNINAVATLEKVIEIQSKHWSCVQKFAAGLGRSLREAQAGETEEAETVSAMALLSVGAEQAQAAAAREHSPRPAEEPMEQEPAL", "method": "as §1, with “curves. TSA and SAHA were used as reference compounds.” for “curves.”"}}, "data": [{"compound": "(S)-2-(6,18-dioxo-5,6,7,9,10,11,12,13,18,19-decahydrobenzo[5,6][1,4,7]-oxadiazacyclo-tetradecino[10,9-b]indol-7-yl)-N-hydroxyacetamide [Example 3]", "values": [{"measurement": "IC50", "setting": "[1]", "value": 0.602, "unit": "µM"}, {"measurement": "IC50", "setting": "[2]", "value": 2.23, "unit": "µM"}, {"measurement": "IC50", "setting": "[3]", "value": 0.584, "unit": "µM"}, {"measurement": "IC50", "setting": "[4]", "value": 0.331, "unit": "µM"}, {"measurement": "IC50", "setting": "[5]", "value": 1.69, "unit": "µM"}, {"measurement": "IC50", "setting": "[6]", "value": 0.379, "unit": "µM"}, {"measurement": "IC50", "setting": "[7]", "value": 0.627, "unit": "µM"}, {"measurement": "IC50", "setting": "[8]", "value": 0.0044, "unit": "µM"}, {"measurement": "IC50", "setting": "[9]", "value": 0.245, "unit": "µM"}, {"measurement": "IC50", "setting": "[10]", "value": 0.297, "unit": "µM"}, {"measurement": "IC50", "setting": "[11]", "value": 0.496, "unit": "µM"}]}, {"compound": "COc1cc2cc(c1)C(=O)Nc1ccccc1NC(=O)[C@H](CCCCCC(=O)NO)OC/C=C\\2", "note": "[Example 1, 6-((Z)—(S)-19-methoxy-2,11-dioxo-13-oxa-3,10-diaza-tricyclo[15.3.1.0*4,9*]henicosa-1(21),4,6,8,15,17,19-heptaen-12-yl)-hexanoic hydroxamic acid]", "values": [{"measurement": "IC50", "setting": "[1]", "value": 2.02, "unit": "µM"}, {"measurement": "IC50", "setting": "[2]", "value": 4.3, "unit": "µM"}, {"measurement": "IC50", "setting": "[3]", "value": 3.28, "unit": "µM"}, {"measurement": "IC50", "setting": "[4]", "value": 1.11, "unit": "µM"}, {"measurement": "IC50", "setting": "[5]", "value": 5.33, "unit": "µM"}, {"measurement": "IC50", "setting": "[6]", "value": 0.948, "unit": "µM"}, {"measurement": "IC50", "setting": "[7]", "value": 2.29, "unit": "µM"}, {"measurement": "IC50", "setting": "[8]", "value": 0.059, "unit": "µM"}, {"measurement": "IC50", "setting": "[9]", "value": 0.864, "unit": "µM"}, {"measurement": "IC50", "setting": "[10]", "value": 0.534, "unit": "µM"}, {"measurement": "IC50", "setting": "[11]", "value": 1.66, "unit": "µM"}]}, {"compound": "COc1cc2cc(c1)C(=O)Nc1ccccc1NC(=O)[C@@H](CCCCCC(=O)NO)OC/C=C\\2", "note": "[Example 2, 6-((Z)—(R)-19-methoxy-2,11-dioxo-13-oxa-3,10-diaza-tricyclo[15.3.1.0*4,9*]henicosa-1(21),4,6,8,15,17,19-heptaen-12-yl)-hexanoic hydroxamic acid]", "values": [{"measurement": "IC50", "setting": "[1]", "value": 1.14, "unit": "µM"}, {"measurement": "IC50", "setting": "[2]", "value": 2.07, "unit": "µM"}, {"measurement": "IC50", "setting": "[3]", "value": 2.53, "unit": "µM"}, {"measurement": "IC50", "setting": "[4]", "value": 0.885, "unit": "µM"}, {"measurement": "IC50", "setting": "[5]", "value": 3.48, "unit": "µM"}, {"measurement": "IC50", "setting": "[6]", "value": 1.11, "unit": "µM"}, {"measurement": "IC50", "setting": "[7]", "value": 1.88, "unit": "µM"}, {"measurement": "IC50", "setting": "[8]", "value": 0.075, "unit": "µM"}, {"measurement": "IC50", "setting": "[9]", "value": 1.34, "unit": "µM"}, {"measurement": "IC50", "setting": "[10]", "value": 0.682, "unit": "µM"}, {"measurement": "IC50", "setting": "[11]", "value": 1.34, "unit": "µM"}]}]}
